Results taken from patent US11001590B2, “Pyrazolopyrimidine derivatives” (BAYER ANIMAL HEALTH GMBH, priority 2016, dated 2021).

Legend:
[1] = log P by HPLC on reversed phase columns (Method L0; [a] acidic, [b] neutral range)
Protocol: Calibration was done with straight-chain alkan-2-ones (with 3 to 16 carbon atoms) with known log P values (measurement of log P values using retention times with linear interpolation between successive alkanones). Lambda-max-values were determined using UV-spectra from 200 nm to 400 nm and the peak values of the chromatographic signals.

[2] = test system: Dirofilaria immitis microfilariae; test: In vitro assay 3: Dirofilaria immitis microfilariae (DIROIM L1), motility; details: 72 h, reduction of motility vs negative control, 72 h incubation
C. elegans Slo-1a = C. elegans Slo-1a (Caenorhabditis elegans, UniProt Q95V25); test: In vitro assay 1: C. elegans Slo-1a, action at a recombinant C. elegans CHO cell line (membrane potential measurement)
C. elegans Slo-1a, sequence (Q95V25 whole entry): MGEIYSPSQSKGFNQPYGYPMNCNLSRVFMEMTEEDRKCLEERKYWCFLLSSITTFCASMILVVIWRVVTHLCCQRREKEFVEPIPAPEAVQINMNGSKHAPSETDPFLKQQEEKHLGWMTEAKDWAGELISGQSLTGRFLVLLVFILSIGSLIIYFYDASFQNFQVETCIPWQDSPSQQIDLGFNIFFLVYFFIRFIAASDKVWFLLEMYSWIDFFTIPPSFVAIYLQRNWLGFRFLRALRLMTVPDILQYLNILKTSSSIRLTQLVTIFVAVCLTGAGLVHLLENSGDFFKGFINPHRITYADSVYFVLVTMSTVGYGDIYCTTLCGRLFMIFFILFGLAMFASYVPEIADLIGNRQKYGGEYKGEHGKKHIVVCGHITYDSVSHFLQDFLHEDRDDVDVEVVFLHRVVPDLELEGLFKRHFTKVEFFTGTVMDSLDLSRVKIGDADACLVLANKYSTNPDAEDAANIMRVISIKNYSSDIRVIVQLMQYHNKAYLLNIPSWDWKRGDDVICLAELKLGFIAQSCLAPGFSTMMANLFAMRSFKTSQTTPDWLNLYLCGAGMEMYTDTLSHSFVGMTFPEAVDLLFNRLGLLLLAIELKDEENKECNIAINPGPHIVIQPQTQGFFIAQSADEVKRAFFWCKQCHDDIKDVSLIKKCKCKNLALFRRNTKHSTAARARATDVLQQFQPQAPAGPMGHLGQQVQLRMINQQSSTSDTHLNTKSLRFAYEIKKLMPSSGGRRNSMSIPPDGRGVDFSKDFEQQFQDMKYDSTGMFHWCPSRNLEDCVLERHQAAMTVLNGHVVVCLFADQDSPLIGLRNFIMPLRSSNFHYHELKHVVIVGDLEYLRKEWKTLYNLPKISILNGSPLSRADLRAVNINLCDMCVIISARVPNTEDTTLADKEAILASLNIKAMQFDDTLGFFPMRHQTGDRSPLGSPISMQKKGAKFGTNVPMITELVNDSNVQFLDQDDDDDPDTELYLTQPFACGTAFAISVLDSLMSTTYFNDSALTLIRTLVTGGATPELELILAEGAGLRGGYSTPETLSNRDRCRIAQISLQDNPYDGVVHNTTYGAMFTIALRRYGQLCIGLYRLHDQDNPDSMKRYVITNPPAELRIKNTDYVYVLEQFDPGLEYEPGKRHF

Row | Structure (SMILES) | chromatographic logP [1] | EC50 [2] | EC50 (C. elegans Slo-1a)
1 | Cc1nn2c(C(C)C)c(C(=O)N[C@H]3CCc4ccccc43)cnc2c1-c1cccc(C(F)F)c1 [Example 151] | 4.67 | < 1 µg/mL | 31.6 nM
2 | CC(C)c1c(C(=O)N[C@H]2CCCc3ccccc32)cnc2c(-c3ccccc3Cl)c(Cl)nn12 [Example 78] | 5.07 | < 0.1 µg/mL | 31.6 nM
3 | Cc1nn2c(C(C)C)c(C(=O)N[C@H]3CCOc4ccccc43)cnc2c1-c1ccc2c(c1)NCC2 [Example 248] | 2.2 | < 10 µg/mL | 50.1 nM
4 | COc1cc(-c2c(C)nn3c(C(C)C)c(C(=O)N[C@H]4CCOc5ccccc54)cnc23)cc(OC)c1OC [Example 249] | 3.94 | < 1 µg/mL | 158 nM
5 | Cc1nn2c(C3CC3)c(C(=O)N[C@H]3CCOc4ccccc43)cnc2c1-c1cc(F)cc(F)c1 [Example 537] | 3.99 | < 0.1 µg/mL | 5.01 nM
6 | Cc1c(C(=O)N[C@H]2CCc3ccccc32)cnc2c(-c3ccccc3Cl)c(Cl)nn12 [Example 74] | 3.99 | < 1 µg/mL | 39.8 nM
7 | Cc1nn2c(C(C)C)c(C(=O)N[C@H]3CCOc4ccccc43)cnc2c1-c1ccccc1 [Example 176] | 4.28 | < 0.1 µg/mL | 12.6 nM
8 | Cc1nn2c(C(C)C)c(C(=O)N[C@H]3CCCc4ccccc43)cnc2c1-c1cccc(C(F)(F)F)c1 [Example 3] | 5.59 | < 10 µg/mL | 50.1 nM
9 | Cc1nn2c(C3CC3)c(C(=O)N[C@H]3CCc4ccccc43)cnc2c1-c1cccc(OC(F)(F)F)c1 [Example 360] | 4.72 | < 1 µg/mL | 12.6 nM
10 | CSc1nn2c(C(C)C)c(C(=O)N[C@H]3CCc4ccccc43)cnc2c1-c1cc(Cl)cc(Cl)c1 [Example 203] | 6.67 | < 10 µg/mL | 200 nM
11 | Cc1nn2c(C(C)C)c(C(=O)N[C@H]3CCc4ccccc43)cnc2c1-c1cccc(CN(C)C)c1 [Example 366] | 1.95 | < 10 µg/mL | 1580 nM
12 | CC(C)c1c(C(=O)N[C@H]2CCc3ccccc32)cnc2c(-c3cccc(N(C)C)c3)c(C3CC3)nn12 [Example 407] | 4.81 | < 10 µg/mL | 126 nM
13 | Cc1nn2c(C3CC3)c(C(=O)N[C@H]3CCOc4ccccc43)cnc2c1-c1ccc(Cl)nc1 [Example 525] | 2.96 | < 10 µg/mL | 79.4 nM
14 | Cc1nn2c(C(C)C)c(C(=O)N[C@H]3CCOc4ccccc43)cnc2c1-c1cccc(OC(F)(F)F)c1 [Example 394] | 5.19 | < 0.1 µg/mL | 15.8 nM
15 | Cc1nn2c(C(C)C)c(C(=O)N[C@H]3CCCc4ccccc43)cnc2c1-c1cccc2c1OC(F)(F)O2 [Example 146] | 5.47 | < 0.1 µg/mL | 25.1 nM
16 | COc1cccc(-c2c(C)nn3c(C(C)C)c(C(=O)N[C@H]4CCc5ccccc54)cnc23)n1 [Example 177, (S)—N-(2,3-Dihydro-1H-inden-1-yl)-7-isopropyl-3-(6-methoxypyridin-2-yl)-2-methylpyrazolo[1,5-a]pyrimidine-6-carboxamide] | 4.89 | < 10 µg/mL | 158 nM
17 | COc1cccc(-c2c(C)nn3c(C(C)C)c(C(=O)N[C@H]4CCCc5ccccc54)cnc23)c1 [Example 346] | 4.82 | < 0.1 µg/mL | 12.6 nM
18 | Cc1nn2c(C(C)C)c(C(=O)N[C@H]3CCc4ccccc43)cnc2c1-c1cccc(F)n1 [Example 178] | 4.6 | < 10 µg/mL | 794 nM
19 | Cc1nn2c(CC(C)C)c(C(=O)N[C@H]3CCOc4ccccc43)cnc2c1-c1c(F)cccc1Cl [Example 225] | 4.56 | < 0.1 µg/mL | 12.6 nM
20 | Cc1nn2c(C(C)C)c(C(=O)N[C@H]3CCCc4ccccc43)cnc2c1-c1cc(F)ccc1F [Example 115] | 4.89 | < 0.1 µg/mL | 15.8 nM
21 | CNc1ccc(-c2c(C)nn3c(C(C)C)c(C(=O)N[C@H]4CCc5ccccc54)cnc23)cc1 [Example 341] | 3.32 | < 10 µg/mL | 200 nM
22 | Cc1nn2c(Cc3ccc(F)cc3)c(C(=O)N[C@H]3CCc4ccccc43)cnc2c1-c1c(F)cccc1Cl [Example 227] | 4.92 | < 10 µg/mL | 2000 nM
23 | Cc1nn2c(C(C)C)c(C(=O)N[C@H]3CCc4ccccc43)cnc2c1-c1cccc(COC(C)C)c1 [Example 369] | 5.25 | < 10 µg/mL | 20 nM
24 | Cc1nn2c(C(C)C)c(C(=O)N[C@H]3CCCc4ccccc43)cnc2c1-c1ccccc1F [Example 94] | 4.72 | < 0.1 µg/mL | 15.8 nM
25 | Cc1nn2c(C(C)C)c(C(=O)N[C@H]3CCc4ccccc43)cnc2c1-c1cccc(NS(C)(=O)=O)c1 [Example 308] | 3.44 | < 10 µg/mL | 1580 nM

Row | Structure (SMILES) | chromatographic logP [1] | EC50 [2] | EC50 (C. elegans Slo-1a)
26 | Cc1nn2c(C(C)C)c(C(=O)N[C@H]3CCc4ccccc43)cnc2c1-c1cccc(CN2CCN(C)CC2)c1 [Example 399] | 1.98 | < 10 µg/mL | 7940 nM
27 | Cc1nn2c(C(C)C)c(C(=O)N[C@H]3CCCc4ccccc43)cnc2c1-c1cccc(F)c1 [Example 347] | 5.04 | < 1 µg/mL | 39.8 nM
28 | CC(C)c1c(C(=O)N[C@H]2CCOc3ccccc32)cnc2c(-c3cc(Cl)c(F)c(Cl)c3)c(C(F)(F)F)nn12 [Example 197] | 5.48 | < 10 µg/mL | 501 nM
29 | Cc1nn2c(C3CC3)c(C(=O)N[C@H]3CCOc4ccccc43)cnc2c1-c1cccc(C(F)(F)F)c1 [Example 449] | 4.31 | < 0.1 µg/mL | 6.31 nM
30 | COc1cccc(-c2c(C)nn3c(C4CC4)c(C(=O)N[C@H]4CCOc5ccccc54)cnc23)c1 [Example 454] | 3.5 | < 0.1 µg/mL | 3.98 nM
31 | Cc1nn2c(C(C)C)c(C(=O)N[C@H]3CCc4ccccc43)cnc2c1-c1cccc(N2CCCC2)c1 [Example 329] | 5.44 | < 10 µg/mL | 25.1 nM
32 | Cc1nn2c(C(C)C)c(C(=O)N[C@H]3CCc4ccccc43)cnc2c1-c1cccc(S(C)(=O)=O)c1 [Example 288] | 3.57 | < 10 µg/mL | 200 nM
33 | Cc1nn2c(C(C)C)c(C(=O)NC3COc4ccccc43)cnc2c1-c1c(F)cccc1F (stereo not drawn) [Example 210] | 3.99 | < 1 µg/mL | 158 nM
34 | CC(C)c1c(C(=O)N[C@H]2CCc3ccccc32)cnc2c(-c3ccccc3F)c(C(F)(F)F)nn12 [Example 158] | 4.76 | < 10 µg/mL | 158 nM
35 | CCN(C)c1cccc(-c2c(C)nn3c(C(C)C)c(C(=O)N[C@H]4CCc5ccccc54)cnc23)c1 [Example 373] | 3.48 | < 1 µg/mL | 39.8 nM
36 | Cc1nn2c(C(C)C)c(C(=O)N[C@H]3CCc4ccccc43)cnc2c1-c1ccc(C(F)F)cc1 [Example 334] | 4.63 | < 10 µg/mL | 25.1 nM
37 | Cc1nn2c(C(C)C)c(C(=O)N[C@H]3CCc4ccccc43)cnc2c1-c1cccc(COCC(F)(F)F)c1 [Example 367] | 4.99 | < 10 µg/mL | 158 nM
38 | COc1cc(-c2c(C)nn3c(C(C)C)c(C(=O)N[C@H]4CCc5ccccc54)cnc23)cc(C(F)(F)F)c1 [Example 312] | 5.41 | < 10 µg/mL | 25.1 nM
39 | COc1cccc(-c2c(C3CC3)nn3c(C(C)C)c(C(=O)N[C@H]4CCc5ccccc54)cnc23)c1 [Example 408] | 5.19 | < 10 µg/mL | 316 nM
40 | Cc1nn2c(C(C)C)c(C(=O)N[C@H]3CCOc4ccccc43)cnc2c1-c1ccc(Cl)c(F)c1 [Example 220] | 5.08 | < 1 µg/mL | 20 nM
41 | Cc1nn2c(C(C)C)c(C(=O)N[C@H]3CCc4ccccc43)cnc2c1-c1cccc(CS(C)(=O)=O)c1 [Example 400] | 3.39 | < 10 µg/mL | 126 nM
42 | Cc1nn2c(C(C)C)c(C(=O)N[C@H]3CCc4ccccc43)cnc2c1-c1cccc(CN2CCCC2)c1 [Example 365] | 2.08 | < 10 µg/mL | 3160 nM
43 | Cc1nn2c(C(C)C)c(C(=O)N[C@H]3CCc4ccccc43)cnc2c1-c1ccc(N(C)C)cc1 [Example 342] | 3.91 | < 10 µg/mL | 200 nM
44 | Cc1nn2c(C(C)C)c(C(=O)N[C@H]3CCCc4ccccc43)cnc2c1-c1ccc2c(c1)OC(F)(F)O2 [Example 148] | 5.59 | < 10 µg/mL | 39.8 nM
45 | Cc1nn2c(C(C)C)c(C(=O)N[C@H]3CCc4ccccc43)cnc2c1-c1ccc(Cl)cc1Cl [Example 181] | 5.31 | < 0.1 µg/mL | 12.6 nM
46 | CC(C)c1c(C(=O)N[C@H]2CCc3ccccc32)cnc2c(-c3c(F)cccc3F)c(C3CC3)nn12 [Example 413] | 4.96 | < 1 µg/mL | 251 nM
47 | Cc1nc2c(-c3cccc(Cl)c3Cl)c(C)nn2c(C)c1C(=O)N[C@H]1CCOc2ccccc21 [Example 267] | 3.86 | < 10 µg/mL | 158 nM
48 | Cc1nn2c(C3CC3)c(C(=O)N[C@H]3CCc4ccccc43)cnc2c1-c1cccc(N2CC(F)C2)c1 [Example 466] | 3.85 | < 10 µg/mL | 10 nM
49 | Cc1nn2c(C(C)C)c(C(=O)N[C@H]3CCc4ccccc43)cnc2c1-c1cncc(Cl)c1 [Example 314] | 4.19 | < 0.1 µg/mL | 15.8 nM
